{"source": "patent US8470863B2", "about": "“Derivatives and analogs of chroman as functionally selective ALPHA2C adrenoreceptor agonists” (Merck Sharp & Dohme, Corp., priority 2007, dated 2013)", "origin": "cited, not measured here", "tested_on": "Coloboma mice", "conditions": "mice mutated to exhibit spontaneous hyperactivity; Bruno et al. 2006"}
{"smiles": "COC(=O)[C@@H]1[C@H]2C[C@H]3c4[nH]c5ccccc5c4CCN3C[C@@H]2CC[C@@H]1O", "note": "[yohimbine]", "values": [{"measurement": "Effect on hyperactivity of Coloboma mice", "result": "ameliorated hyperactivity"}]}
